Data as given in patent US20150159169A1, “Plants Tolerant to HPPD Inhibitor Herbicides” (Bayer CropScience AG, priority 2009, published 2015).
Like-named read-outs stand apart in the source and are kept apart here.

How the values were obtained:
[1] = target: Kordia algicida HPPD "SEQ ID No. 5" (FMP27e) (Kordia algicida, UniProt A9DQF2); assay: HPLC assay of HPPD in vitro kinetic properties; type: biochemical
Description: (§1) Km, Vmax, and kcat values for different HPPD enzyme preparations and Ki, K1=Kon, and K−1=Koff for different HPPD inhibitors were determined using a HPLC assay for measurements of HPPD activity. […] All assays were started by the addition of HPPD enzyme to the assay mixture and stopped at a series of times between 0 and 240 s by addition of 200 μl of the reaction mixture to reaction assay tubes containing 20 μl 10% perchloric acid. Precipitated protein was pelleted by a 5 minute centrifugation at 10,000 g.
(§2) For Km and Vmax value determinations the initial rates of the HPPD reaction at different substrate concentrations were determined from plots of HGA formed versus time and fitted to the Michaelis-Menten equation for unireactant enzymes using the ID Business Solutions Ltd. (idbs.com) XLfit software suite.

[2] = target: T1, Arabidopsis thaliana HPPD "SEQ ID No. 10" (Arabidopsis thaliana, UniProt P93836); assay: HPLC assay of HPPD in vitro kinetic properties; type: biochemical; details: substrate HPP varied 10-400 μM; enzyme SEQ ID No. 10
T1 construct: made in house; host or cells: E. coli K-12 BL21 (pQE30-AtHPPD)
T1 sequence (P93836 with tags, fused parts or gaps): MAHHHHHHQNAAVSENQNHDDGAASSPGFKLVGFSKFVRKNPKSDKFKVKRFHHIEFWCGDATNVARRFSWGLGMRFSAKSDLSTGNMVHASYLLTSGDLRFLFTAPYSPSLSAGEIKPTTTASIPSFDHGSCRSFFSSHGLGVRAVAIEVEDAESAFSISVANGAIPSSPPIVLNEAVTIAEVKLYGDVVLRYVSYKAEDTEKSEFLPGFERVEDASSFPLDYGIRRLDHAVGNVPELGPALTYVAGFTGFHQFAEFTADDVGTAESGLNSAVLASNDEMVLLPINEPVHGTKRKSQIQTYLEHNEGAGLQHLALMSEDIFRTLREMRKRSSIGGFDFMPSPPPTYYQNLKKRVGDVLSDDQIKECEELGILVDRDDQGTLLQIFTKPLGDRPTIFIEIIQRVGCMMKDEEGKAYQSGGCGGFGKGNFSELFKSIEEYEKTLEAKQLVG
Description: as §1, §2

[3] = system: tobacco plants containing FMP27t-h, PAT and 2mEPSPS (pFCO116); assay: Glasshouse response of three-tolerance-gene tobacco to herbicides, injury classes; type: in vivo, Nicotiana tobacum; details: 9 DAT
Description: A binary vector for tobacco transformation is, for example, constructed with the CaMV35 promoter driving the expression of the gene FMP27t-h (SEQ ID No. 15), with a codon usage optimized for the expression in dicotyledoneous plants and at its 5′extremity was added a sequence coding for an OTP, and further upstream a sequence TEV (Tobacco etch virus) to improve the stability of the mRNA in plants followed by the CaMV35S terminator. The nucleotide sequence of the gene FMP27t-h is given in SEQ ID No. 15. Additionally, the transformation vector also contains a PAT gene cassette in which the gene is driven by a CaVM35S promoter and followed by a CaMV35S terminator for glufosinate based selection during the transformation process and a 2mEPSPS gene cassette in which the gene is driven by an histone promoter from Arabidopsis to confer tolerance to the herbicide glyphosate to the transformed plants (see FIG. 3 H). The binary vector was called pFCO116. The above vector was used to transform leaf disc obtained from Nicotiana tobacum plants, according to Example 3.
Transgenic tobacco plants were transferred to the greenhouse and treated with glyphosate at a rate of 1121 g AI/ha. Seeds were produced from such tolerant tobacco plants and harvested. These seeds were put on soil to germinate in the glasshouse. Three to four weeks later, 50 plantlets per event were transferred to single pots. Two weeks later, plants of a size 4-6 cm were sprayed either with
[…] […] Non-transgenic tobacco plants were completely killed by treatment using one or more of the above herbicides.

[4] = system: tobacco leaf disks containing SEQ ID No. 7 (Kordia algicida HPPD); assay: Leaf disk regeneration on HPPD inhibitor media; type: cell-based, Nicotiana tabacum; details: 6 weeks
Description: (§3) At the end of the experiments the level of regeneration was evaluated as followed:
(§4) “−” means that the leaf disks looked the same as leaf disk from wild type tobacco plants on media supplemented with the inhibitor mentioned above.
(§5) “++++” means that the leaf disks looked like the leaf disks from the wild type tobacco plants on media without inhibitor.
(§6) “+”, “++”, and “+++” indicate regenerated leaf disks were heavily (+), medium (++) and less (+++) affected by the presence of the inhibitors.

[5] = system: tobacco leaf disks containing SEQ ID No. 11 (Arabidopsis HPPD); assay: Leaf disk regeneration on HPPD inhibitor media; type: cell-based, Nicotiana tabacum; details: 6 weeks
Description: as §3, §4, §5, §6

[6] = target: Kordia algicida HPPD "SEQ ID No. 5" (Kordia algicida, UniProt A9DQF2); assay: biochemical; details: for inhibition at 5 µM: read-out: percentage of inhibition compared to the activity in absence of the inhibitor
[7] = target: T1, Arabidopsis thaliana HPPD "SEQ ID No. 10"; assay: HPPD activity in presence of HPPD inhibitors (pI50, % inhibition); type: biochemical
[8] = system: wild type tobacco plants; assay: Glasshouse response to bicyclopyrone, injury classes; type: in vivo, Nicotiana tabacum; details: 100 g AI/ha, 7 DAT; WT
Excerpt: (§7) Seeds of wild type tobacco plants and T1 tobacco plants carrying the gene from Kordia algicida FMP27e coding for HPPD were sown on MS media (Murashige and Skoog 1964) supplemented with […] kanamycin. After 4 weeks, rooted green plantlets were transferred to soil and grown for 3 weeks in the glasshouse as described above then sprayed with a mixture containing bicyclopyrone (100 g AI/ha), ammonium sulfate and methyl ester raps oil. The plants were classified in two categories based on the phenotype developed in response to the herbicide seven days after the treatment. […] In this case, only plants containing at least one T-DNA were exposed to the herbicidal treatment.

[9] = system: T1 tobacco plants carrying FMP27e; assay: as above; type: in vivo, Nicotiana tabacum; details: 100 g AI/ha, 7 DAT
Excerpt: as §7

[10] = substrate HPP varied 10-400 μM, enzyme SEQ ID No. 5
[11] = 5.0 × 10^−6M inhibitor, enzyme SEQ ID No. 5

Chain of Kordia algicida HPPD "SEQ ID No. 5" (A9DQF2 entry or part of it): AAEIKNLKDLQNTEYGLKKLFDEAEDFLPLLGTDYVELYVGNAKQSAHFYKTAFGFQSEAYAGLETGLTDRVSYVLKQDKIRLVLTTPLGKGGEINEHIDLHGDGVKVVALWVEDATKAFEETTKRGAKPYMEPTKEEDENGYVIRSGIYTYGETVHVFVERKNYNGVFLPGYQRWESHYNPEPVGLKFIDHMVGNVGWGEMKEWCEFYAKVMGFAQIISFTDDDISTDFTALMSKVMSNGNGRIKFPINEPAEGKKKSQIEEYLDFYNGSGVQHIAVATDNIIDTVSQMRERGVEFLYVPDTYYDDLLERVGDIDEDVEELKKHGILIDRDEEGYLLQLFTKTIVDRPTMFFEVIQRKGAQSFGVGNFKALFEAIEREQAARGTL
Chain of Kordia algicida HPPD "SEQ ID No. 5" (FMP27e) (A9DQF2 entry or part of it): as above

O=C(O)C(=O)Cc1ccc(O)cc1 [HPP, para-hydroxyphenylpyruvate]
Km [1, 10]: 292 µM
Vmax [1, 10]: 13.6 µM
Km [2]: 6.3 µM
Vmax [2]: 1.2 µM

CP(=O)(O)CCC(N)C(=O)O (centres unmarked) [Glufosinate-ammonium]
Class I, number of plants (no injuries) ([3]; 1000 g AI/ha, line 639): 10
Class II, number of plants (injury: 10-40%) ([3]; 1000 g AI/ha, line 639): 0
Class III, number of plants (injury: 41-100%) ([3]; 1000 g AI/ha, line 639): 0
Class I, number of plants (no injuries) ([3]; 1000 g AI/ha, line 714): 10
Class II, number of plants (injury: 10-40%) ([3]; 1000 g AI/ha, line 714): 0
Class III, number of plants (injury: 41-100%) ([3]; 1000 g AI/ha, line 714): 0
Class I, number of plants (no injuries) ([3]; 1000 g AI/ha, line 717): 10
Class II, number of plants (injury: 10-40%) ([3]; 1000 g AI/ha, line 717): 0
Class III, number of plants (injury: 41-100%) ([3]; 1000 g AI/ha, line 717): 0

CS(=O)(=O)c1cc(C(F)(F)F)ccc1C(=O)C(C#N)C(=O)C1CC1 (centres unmarked) [Diketonitrile, 2-cyano-3-cyclopropyl-1-(2-methylsulphonyl-4-trifluoromethylphenyl)-propane-1,3-dione]
level of leaf disk regeneration ([4]; diketonitrile 5.10^−6 M): +
level of leaf disk regeneration ([5]; diketonitrile 5.10^−6 M): −
inhibition at 5 µM [6, 11]: 80%
IC50 ([6]; read-out: pI50 (converted)): 2 µM
Ki ([1]; read-out: Ki): 15 µM

Cc1nn(C)c(O)c1C(=O)c1ccc(C(F)(F)F)cc1S(C)(=O)=O [Pyrasulfotole]
IC50 [7]: 3.98 µM
inhibition at 5 µM ([7]; read-out: percentage of inhibition compared to the activity in absence of the inhibitor): 69%
IC50 [6]: 12.6 µM
inhibition at 5 µM [6]: 43%

COCCOCc1nc(C(F)(F)F)ccc1C(=O)C1=C(O)C2CCC(C2)C1=O (centres unmarked) [Bicyclopyrone, 4-hydroxy-3-[[2-[(2-methoxyethoxy)methyl]-6-(trifluoromethyl)-3-pyridinyl]carbonyl]bicyclo[3.2.1]oct-3-en-2-one]
% of tolerant plant [8]: 0%
Class I, number of plants (injury: 0-30%) [8]: 0
Class II, number of plants (injury: 31-100%) [8]: 12
% of tolerant plant ([9]; line 121): 39%
Class I, number of plants (injury: 0-30%) ([9]; line 121): 90
Class II, number of plants (injury: 31-100%) ([9]; line 121): 138
% of tolerant plant ([9]; line 129): 30%
Class I, number of plants (injury: 0-30%) ([9]; line 129): 47
Class II, number of plants (injury: 31-100%) ([9]; line 129): 111
% of tolerant plant ([9]; line 218): 64%
Class I, number of plants (injury: 0-30%) ([9]; line 218): 100
Class II, number of plants (injury: 31-100%) ([9]; line 218): 56
level of leaf disk regeneration ([4]; inhibitor 10^−6 M): ++
level of leaf disk regeneration ([5]; inhibitor 10^−6 M): −
IC50 ([6]; read-out: pI50 (converted)): 10 µM
inhibition at 5 µM [6]: 38%

CS(=O)(=O)c1ccc(C(=O)C2C(=O)CCCC2=O)c(Cl)c1COCC1CCCO1 (centres unmarked) [Tefuryltrione, 2-[2-chloro-4-(methylsulfonyl)-3-[[(tetrahydro-2-furanyl)methoxy]methyl]benzoyl]-1,3-cyclohexanedione]
inhibition at 5 µM [6, 11]: 73%
IC50 ([6]; read-out: pI50 (converted)): 1.58 µM

O=C(O)CNCP(=O)(O)O [Glyphosate]
Class I, number of plants (no injuries) ([3]; 1121 g AI/ha, line 639): 9
Class II, number of plants (injury: 10-40%) ([3]; 1121 g AI/ha, line 639): 0
Class III, number of plants (injury: 41-100%) ([3]; 1121 g AI/ha, line 639): 1
Class I, number of plants (no injuries) ([3]; 1121 g AI/ha, line 714): 10
Class II, number of plants (injury: 10-40%) ([3]; 1121 g AI/ha, line 714): 0
Class III, number of plants (injury: 41-100%) ([3]; 1121 g AI/ha, line 714): 0
Class I, number of plants (no injuries) ([3]; 1121 g AI/ha, line 717): 10
Class II, number of plants (injury: 10-40%) ([3]; 1121 g AI/ha, line 717): 0
Class III, number of plants (injury: 41-100%) ([3]; 1121 g AI/ha, line 717): 0

Cc1ccc(C(=O)COc2c(C(=O)c3ccc(Cl)c(C)c3Cl)c(C)nn2C)cc1 [Benzofenap]
inhibition at 5 µM [6, 11]: 97%
IC50 ([6]; read-out: pI50 (converted)): < 2.51 µM

CS(=O)(=O)c1ccc(C(=O)C2C(=O)CCCC2=O)c([N+](=O)[O-])c1 [Mesotrione, 2-[4-(methylsulfonyl)-2-nitrobenzoyl]-1,3-cyclohexanedione]
level of leaf disk regeneration ([4]; inhibitor 10^−6 M): +
level of leaf disk regeneration ([5]; inhibitor 10^−6 M): −
